What is called IC50 is the point on the concentration scale where inhibition reaches its midpoint. The low end stands for greater potency, the high end for weaker potency.

Structures are written as SMILES.

In the experiment the target is T1, human ENT1 (Homo sapiens, UniProt Q99808).
T1 sequence (Q99808 1-456): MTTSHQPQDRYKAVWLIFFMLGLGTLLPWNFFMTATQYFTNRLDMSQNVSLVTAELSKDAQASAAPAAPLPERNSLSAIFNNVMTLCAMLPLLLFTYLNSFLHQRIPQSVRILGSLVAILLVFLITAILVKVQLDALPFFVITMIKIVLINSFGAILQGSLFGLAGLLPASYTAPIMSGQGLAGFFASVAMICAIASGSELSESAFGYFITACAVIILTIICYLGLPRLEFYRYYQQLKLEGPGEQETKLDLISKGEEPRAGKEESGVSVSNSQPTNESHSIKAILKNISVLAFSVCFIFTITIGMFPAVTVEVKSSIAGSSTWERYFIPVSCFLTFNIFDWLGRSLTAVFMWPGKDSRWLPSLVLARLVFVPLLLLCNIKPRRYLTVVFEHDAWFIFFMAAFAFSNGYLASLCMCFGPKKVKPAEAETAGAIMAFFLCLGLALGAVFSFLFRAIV
As to the kind of experiment: ENT1 binding assay (competition with Sahenta-DY647 on JAR cells). Also on record: JAR cells expressing ENT1 were bought from ATCC; host or cells: JAR cells. The note with it: binned IC50. As for the experimental part: Purpose. […] By measuring the fluorescence at the end of the assay we could assess the binding potency of the compounds of the present invention.
JAR cells were resuspended in the described buffer. Compounds of the present invention and Sahenta-DY647 were diluted 200× in the described buffer.
The total volume of the reaction was 100 μL (50 μL of cells, 25 μL of the compounds of the present invention and 25 μL of Sahenta-DY647) in a 96 well plate, U-bottom (Greiner®, #650-180). The plates were washed 2× by centrifugation (4 min, 400 rcf at 4° C.) in the same buffer.
Molecule `COCCN(CCOC)c1nc(N2CCN(C)C(=O)C2)c2nc(N(CCOC)CCOC)nc(N3CCC(F)(F)CC3)c2n1` [Compound 206, 4-(2,6-bis(bis(2-methoxyethyl)amino)-8-(4,4-difluoropiperidin-1-yl)pyrimido[5,4-d]pyrimidin-4-yl)-1-methylpiperazin-2-one] showed an IC50 of less than 100 nM.

For the molecule `CCN1CCN(c2nc(N(CCOC)CCOC)nc3c(N4CCC(OC)CC4)nc(N(CCOC)CCOC)nc23)CC1=O` [Compound 198, 4-(2,6-bis(bis(2-methoxyethyl)amino)-8-(4-methoxypiperidin-1-yl)pyrimido[5,4-d]pyrimidin-4-yl)-1-ethylpiperazin-2-one], the IC50 fell in the range of 100 to 500 nM.

Molecule `CCN(CCN1CCCC1)c1nc(N2CCN(C)C(=O)C2)c2nc(N(CCOC)Cc3cc(OC)c(OC)c(OC)c3)nc(N3CCC(OC)CC3)c2n1` [Compound 300, 4-(2-(ethyl(2-(pyrrolidin-1-yl)ethyl)amino)-6-((2-methoxyethyl)(3,4,5-trimethoxybenzyl)amino)-8-(4-methoxypiperidin-1-yl)pyrimido[5,4-d]pyrimidin-4-yl)-1-methylpiperazin-2-one] registered an IC50 of 100 to 500 nM.

`COCCN(CCOC)c1nc(N2CCN(C)C(=O)C2)c2nc(N(CCOC)CCOC)nc(NCc3cccc(OC)c3)c2n1` [Compound 209, 4-(2,6-bis(bis(2-methoxyethyl)amino)-8-((3-methoxybenzyl)amino)pyrimido[5,4-d]pyrimidin-4-yl)-1-methylpiperazin-2-one] returned an IC50 of less than 100 nM.

Molecule `COCCN(CCOC)c1nc(N2CC(O)(C(F)(F)F)C2)c2nc(N(CCO)CCO)nc(N3CCC(OC)CC3)c2n1` [Compound 326, 2,2′-((6-(bis(2-methoxyethyl)amino)-8-(3-hydroxy-3-(trifluoromethyl)azetidin-1-yl)-4-(4-methoxypiperidin-1-yl)pyrimido[5,4-d]pyrimidin-2-yl)azanediyl)bis(ethan-1-ol)] displayed an IC50 of 500 to 1000 nM.

`CCNc1nc(N(CCOC)CCOC)nc2c(N3CCC(OC)CC3)nc(N(CCOC)CCOC)nc12` [Compound 126, N4-ethyl-N2,N2,N6,N6-tetrakis(2-methoxyethyl)-8-(4-methoxypiperidin-1-yl)pyrimido[5,4-d]pyrimidine-2,4,6-triamine] yielded an IC50 of 500 to 1000 nM.

The molecule `COCCN(CCOC)c1nc(N2CCC(OC)CC2)c2nc(N(CCOC)CCOC)nc(NCc3cnccn3)c2n1` [Compound 84, N2,N2,N6,N6-tetrakis(2-methoxyethyl)-8-(4-methoxypiperidin-1-yl)-N4-(pyrazin-2-ylmethyl)pyrimido[5,4-d]pyrimidine-2,4,6-triamine] returned an IC50 of 500 to 1000 nM.

The molecule `COCCN(CCOC)c1nc(N2CCN(C)C(=O)C2)c2nc(N(CCOC)Cc3cc(OC)c(OC)c(OC)c3)nc(N3CCC(OC)CC3)c2n1` [Compound 269, 4-(2-(bis(2-methoxyethyl)amino)-6-((2-methoxyethyl)(3,4,5-trimethoxybenzyl)amino)-8-(4-methoxypiperidin-1-yl)pyrimido[5,4-d]pyrimidin-4-yl)-1-methylpiperazin-2-one] yielded an IC50 of less than 100 nM.

`COCCN(CCOC)c1nc(N2CCC(OC)CC2)c2nc(N3CCn4ncnc4C3)nc(N3CCN(C)C(=O)C3)c2n1` [Compound 282, 4-(6-(bis(2-methoxyethyl)amino)-2-(5,6-dihydro-[1,2,4]triazolo[1,5-a]pyrazin-7(8H)-yl)-8-(4-methoxypiperidin-1-yl)pyrimido[5,4-d]pyrimidin-4-yl)-1-methylpiperazin-2-one] displayed an IC50 of 100 to 500 nM.

`COCCN(CCOC)c1nc(N2CCN(c3cnccn3)CC2)c2nc(N(CCOC)CCOC)nc(N3CCC(OC)CC3)c2n1` [Compound 120, N2,N2,N6,N6-tetrakis(2-methoxyethyl)-4-(4-methoxypiperidin-1-yl)-8-(4-(pyrazin-2-yl)piperazin-1-yl)pyrimido[5,4-d]pyrimidine-2,6-diamine] gave a half-maximal inhibitory concentration (IC50) of 500 to 1000 nM.

`COCCN(CCOC)c1nc(N2CCc3oc(C)nc3C2)c2nc(N(CCOC)CCOC)nc(N3CCN(C)C(=O)C3)c2n1` [Compound 256, 4-(2,6-bis(bis(2-methoxyethyl)amino)-8-(2-methyl-6,7-dihydrooxazolo[4,5-c]pyridin-5(4H)-yl)pyrimido[5,4-d]pyrimidin-4-yl)-1-methylpiperazin-2-one] displayed an IC50 of less than 100 nM.

With `COCCN(CCOC)c1nc(N2CCN(c3ncn(C)n3)CC2)c2nc(N(CCOC)CCOC)nc(N(C)Cc3ccc(F)c(C#N)c3)c2n1` [Compound 245, 5-(((2,6-bis(bis(2-methoxyethyl)amino)-8-(4-(1-methyl-1H-1,2,4-triazol-3-yl)piperazin-1-yl)pyrimido[5,4-d]pyrimidin-4-yl)(methyl)amino)methyl)-2-fluorobenzonitrile], the 50% inhibitory concentration (IC50) fell in the range of 500 to 1000 nM.

Regarding `COCCN(CCOC)c1nc(N2CCC(OC)CC2)c2nc(N(CCOC)CCOC)nc(NCCC(C)(C)O)c2n1` [Compound 178, 4-((2,6-bis(bis(2-methoxyethyl)amino)-8-(4-methoxypiperidin-1-yl)pyrimido[5,4-d]pyrimidin-4-yl)amino)-2-methylbutan-2-ol], the IC50 lay within 500 to 1000 nM.

In the case of `COCCN(CCOC)c1nc(N2CCC(OC)CC2)c2nc(N(CCOC)CCOC)nc(NCc3cccc(S(C)(=O)=O)c3)c2n1` [Compound 148, N2,N2,N6,N6-tetrakis(2-methoxyethyl)-8-(4-methoxypiperidin-1-yl)-N4-(3-(methylsulfonyl)benzyl)pyrimido[5,4-d]pyrimidine-2,4,6-triamine], the half-inhibitory concentration (IC50) was 100 to 500 nM.

Turning to `CCN(CCN1CCCC1)c1nc(N2CCN(C)C(=O)C2)c2nc(N(CCOC)CCOC)nc(N3CCC(OC)CC3)c2n1` [Compound 267, 4-(6-(bis(2-methoxyethyl)amino)-2-(ethyl(2-(pyrrolidin-1-yl)ethyl)amino)-8-(4-methoxypiperidin-1-yl)pyrimido[5,4-d]pyrimidin-4-yl)-1-methylpiperazin-2-one], the IC50 was 100 to 500 nM.

For the molecule `COCCN(CCOC)c1nc(N2CCc3nn(C)cc3C2)c2nc(N(CCOC)CCOC)nc(N3CCN(C)C(=O)C3)c2n1` [Compound 252, 4-(2,6-bis(bis(2-methoxyethyl)amino)-8-(2-methyl-2,4,6,7-tetrahydro-5H-pyrazolo[4,3-c]pyridin-5-yl)pyrimido[5,4-d]pyrimidin-4-yl)-1-methylpiperazin-2-one], the IC50 was less than 100 nM.

Consider `COCCN(CCOC)c1nc(N2CCn3nc(C)nc3C2)c2nc(N(CCOC)CCOC)nc(N3CCN(C)C(=O)C3)c2n1` [Compound 301, 4-(2,6-bis(bis(2-methoxyethyl)amino)-8-(2-methyl-5,6-dihydro-[1,2,4]triazolo[1,5-a]pyrazin-7(8H)-yl)pyrimido[5,4-d]pyrimidin-4-yl)-1-methylpiperazin-2-one], for which the IC50 was less than 100 nM.

For `COCCN(CCOC)c1nc(N2CCC(OC)CC2)c2nc(NCCn3cccn3)nc(N3CCC(OC)CC3)c2n1` [Compound 32, N2-(2-(1H-pyrazol-1-yl)ethyl)-N6,N6-bis(2-methoxyethyl)-4,8-bis(4-methoxypiperidin-1-yl)pyrimido[5,4-d]pyrimidine-2,6-diamine], the IC50 was in the range of 500 to 1000 nM.

For `COCCN(CCOC)c1nc(N2CCc3cnn(C)c3C2)c2nc(N(CCOC)CCOC)nc(N3CCN(C)C(=O)C3)c2n1` [Compound 266, 4-(2,6-bis(bis(2-methoxyethyl)amino)-8-(1-methyl-1,4,5,7-tetrahydro-6H-pyrazolo[3,4-c]pyridin-6-yl)pyrimido[5,4-d]pyrimidin-4-yl)-1-methylpiperazin-2-one], the IC50 was less than 100 nM.

The values above are taken from patent US20230146675A1, “PYRIMIDO[5,4-d]PYRIMIDINE DERIVATIVES AS ENT INHIBITORS FOR THE TREATMENT OF CANCERS, AND COMBINATION THEREOF WITH ADENOSINE RECEPTOR ANTAGONISTS” (ITEOS BELGIUM SA, priority 2020, published 2023).
